From publication PMC8791944, “GLUT3 inhibitor discovery through in silico ligand screening and in vivo validation in eukaryotic expression systems” (Scientific Reports, 2022)

Test system: HepG2 (liver cancer) cells
Assay: MTT cancer cell viability assay, HepG2
Type: cell-based
Settings: HepG2, 48 h
Experimental: A possible therapeutic application of GLUT3 inhibitors is in oncology, especially for cancers in which GLUT3 is a poor prognosis marker. We tested the effect of GLUT3 inhibitors on the cell viability of several different cancer lines: myeloid leukemia (HL60 and U937), lung cancer (A549), colorectal adenocarcinoma (Caco-2), breast cancer (MCF7), hepatocellular carcinoma (HepG2), and choriocarcinoma (BeWo) cells. GLUT3 inhibitors, at five different concentrations, ranging from 2 to 100 µM, were incubated with cancer cells for 48 h. Then, cell viability was assessed with the MTT assay. […] G3iC and G3iD also affected the leukemia cell lines but at double the concentrations of G3iB and G3iE. […] G3iB had some cytotoxic activity (CC50 < 50 µM) against the highest number of cancer cell lines (HL60, U937, A549, HepG2, and MCF7).
Cancer cell viability in the presence of GLUT3 inhibitors was assayed using the MTT Cell Viability Kit (Biotium Inc, Freemont, CA) according to manufacturer’s instructions. Cancer cells were grown in the corresponding medium, at 37 °C and 5% CO2 in a humidified incubator. The media (Gibco) for leukemia cells (HL60 and U937), A549, MCF7, BeWo, and HepG2 cells were RPMI 1640, Ham’s F-12K, DMEM:F-12, Ham’s F-12K, and EMEM, respectively, all supplemented with 10% (v/v) fetal bovine serum (HyClone). Caco-2 cells were grown in EMEM supplemented with 20% (v/v) fetal bovine serum. Cells were detached from the culture flasks with Accutase (Innovative Cell Technologies, Inc., San Diego, CA) according to manufacturer’s instructions. Cells were seeded in 96-well plates, at a density of ~ 30,000 cells/well (in 100 µl fresh media) and incubated with varying concentrations of GLUT3 inhibitors for 48 h, at 37 °C and 5% CO2 in a humidified incubator. The inhibitors were dissolved in DMSO, at 100× the final concentration, so that 1 µl of the stock inhibitor concentration was added per well, making the final DMSO concentration 1% (v/v). Therefore, controls for 100% cell viability were cells with 1% (v/v) DMSO without the inhibitors. Controls for 0% cell viability were cells treated with 0.3% (v/v) Tween 20. For MTT assay, 10 µl of MTT reagent was added in each well followed by 3–4 h incubation at 37 °C and 5% CO2 in a humidified incubator. After thoroughly mixing in 200 µl DMSO in each well, the plates were put into a plate reader (BioTek Synergy H1), and the absorbances at 570 nm and 630 nm were measured with Gen5 program (BioTek Inc.). The experimental values represent Abs570 nm-Abs630 nm with each inhibitor condition and control being the average of three wells.
Supplementary Figure S8. Effect of GLUT3 inhibitors on the viability of various cancer cell lines. Cell viability was determined by MTT assay in A549 (lung cancer), BeWo (choriocarcinoma), Caco-2 (colon cancer), HepG2 (liver cancer), HL-60 (leukemia), MCF7 (breast cancer), and U937 (histiocytic lymphoma) cell lines. GLUT3 inhibitors at concentrations of 2, 5, 10, 20, 50, and 100 µM were incubated with cells in 96-well plates for 48 hours before the addition of the MTT reagent.

| SMILES | CC50 [µM] |
| --- | --- |
| COc1ccccc1-n1c(/C=C/c2ccc(O)cc2)nc2ccc(Br)cc2c1=O [G3iB, 6-bromo-2-[(E)-2-(4-hydroxyphenyl)ethenyl]-3-(2-methoxyphenyl)quinazolin-4(3H)-one] | 39.3 ± 4 |

Same assay, conditions: Homo sapiens, HepG2, 48 h

| SMILES | CC50 [µM] |
| --- | --- |
| CC(=O)Nc1ccc(S(=O)(=O)Nc2ccc(Nc3cc(N(C)C)nc(C)n3)cc2)cc1 [G3iA, N-(4-{[(4-{[6-(dimethylamino)-2-methylpyrimidin-4-yl]amino}phenyl)amino]sulfonyl}phenyl)acetamide] | > 100 |
| COc1ccccc1-n1c(/C=C/c2ccc(O)cc2)nc2ccc(Br)cc2c1=O [G3iB, 6-bromo-2-[(E)-2-(4-hydroxyphenyl)ethenyl]-3-(2-methoxyphenyl)quinazolin-4(3H)-one] | < 50 |
| Cc1cccnc1OC1CCN(c2cc(N3CCCC3CO)ncn2)CC1 (stereo not shown) [G3iC] | > 100 |
| Cc1cc(NC(=O)CCC2Cc3ccccc3NC2=O)nc(-c2ccccc2)n1 (stereo not shown) [G3iD] | > 100 |
| O=C(Nc1cccc(Cl)c1)c1cccc(NC(=O)c2cccc([N+](=O)[O-])c2)c1 [G3iE, N-{3-[(3-chloroanilino)carbonyl]phenyl}-3-nitrobenzamide] | > 100 |
| Cc1ccccc1CN(Cc1nnc(C(C)(C)C)o1)c1ccc2nc(O)[nH]c2c1 [G3iF] | > 100 |
